The source of these data is patent EP1536235A2, “Method for detecting environmental pollution using 14-3-3 proteins as biomarkers” (MÜLLER, Werner E. G., priority 1998, dated 1999).

One assay relates to 14-3-3 Protein. The assay can be described thus: ELISA quantification of 14-3-3 protein in liver after i.p. injection. The following applies: liver after 5 days, Kontrolle 0,12.
The subject of assay [1] is 14-3-3. The assay can be described thus: Keeping experiments with PCB 118: 14-3-3 expression by Northern and Western blotting. Type of assay: in vivo, Geodia cydonium. The following applies: 2 µg PCB 118/g wet weight, 0,5 to 6 days; Northern (mRNA) and Western blotting (protein). From the text: (§1) Für eine Quantifizierung der mRNA für 14-3-3 mittels Northern-Blotting Verfahren werden Gensonden hergestellt, die von den konservierten Anfangsbereichen [aa45-aa57] bis zu den konservierten Endbereichen [aa214-aa234] des 14-3-3 Proteins reichen (ABB. 2). Als Methodik wird die PCR-Klonierung eingesetzt. Die erhaltenen APPROX 500 bp langen Sonden eignen sich erfahrungsgemäß gut für Northern-Blotting-Untersuchungen.
(§2) Die quantitative Auswertung der Signale kann zum Beispiel mit Hilfe des Chemilumineszenz-Verfahrens (Stanley und Kricka, Bioluminescence and chemiluminescence: current status. John Wiley & Sons, New York, 1990) in Verbindung mit einem Phospholmager (z. B. GS-525 Molecular Imager der Firma Bio-Rad) erfolgen; Dinatrium 2-Chlor-5-(4-methoxyspiro 1,2-dioxetane-3,2'-(5'-chlor)-tricyclo[3.3.1.13,7]decan-4-yl)phenyl-phosphat (CDP) wird hierfür als Substrat angewandt.
Der Nachweis der Expression von 14-3-3 auf Protein-Ebene erfolgt mittels Antikörper. Entweder können kommerzielle (z. B. von der Firma Calbiochem/Oncogene) oder gegen das rekombinante Invertebraten-Protein 14-3-3 aus Geodia cydonium gezogene Antikörper eingesetzt werden. Zur Quantifizierung der 14-3-3 Proteine werden Western-Blots mit Extrakten des Bioindikators hergestellt. Die Signale können wieder unter Anwendung des Chemilumineszenz-Verfahrens quantifiziert werden. Die Gewebeextrakte können z. […]
(Immunoblotting shows a protein as a band on a membrane.)

The subject of assay [2] is 14-3-3. The assay is described as follows: Northern blotting of 14-3-3 mRNA after exposure of the sponge. In kind it is in vivo, G. cydonium. The following applies: PCB 118 2 µg/g, 17 beta-Östradiol 20 ng/g, alone or in combination; 17 beta-Östradiol = 100% reference value; incubation 3 or 6 days; not detectable without agents.
Description: as §1, §2
Durchfiihrung: • (a) Exposition von G. cydonium gegenüber PCB 118: 1 ml PCB 118 (0.1 mg/ml in Kornöl) wurde in […] Schwammgewebe injiziert. Die Proben wurden in Seewasser für bis zu 6 Tage in 20 1 Aquarien bei 17°C unter kontinuierlicher Belüftung inkubiert; das Wasser wurde einmal am Tag 2 gewechselt. Aliquote Teile des Gewebes (ungefähr je 200 mg) wurden zum Zeitpunkt Null oder nach einer Inkubationszeit von 0.5, 1, 3, 5 und 6 Tagen entnommen. […]

Setting [3] is: i.p. 0.03 mg PCB pro kg Limanda limanda.

Description for 14-3-3 Protein: Vorgegangen wurde hierbei nach den Instruktionen des Herstellers. Überschüssige Maleimidgruppen auf den Platten wurden durch einstündige Inkubation der Platten mit einer Cysteinlösung (10 µg/ml) blockiert.
Die Durchführung erfolgt in folgenden Schritten: • Variante 1 • 1a. Inkubation der Streptavidin-beschichteten Mikrotiterplatten mit dem Biotingekoppelten Peptid. • 2a. Zugabe von 100 µl Extrakt aus den untersuchten Tiergeweben in die Wells nach Bindung des Peptids über Biotin und Streptavidin. Oder: • 1a. Inkubation der Extrakte aus den untersuchten Tiergeweben mit dem Biotingekoppelten Peptid. • 2a. Zugabe von 100 µl der Inkubationsmischungen nach Bindung des Biotin-Peptids an 14-3-3 in die Wells. • 3. Waschen. • 4. Quantifizierung der Peptid-14-3-3 Komplexe über markierte Antikörper. Als Markierung kann zum Beispiel die alkalische Phosphatase verwendet werden; als Substrat zum Nachweis dient dann 5-Brom-4-Chlor-3-Indolylphosphat/Nitroblau-Tetrazolium. • 5. Detektion mittels eines ELISA-Platten-Readers. • Variante 2 • 1. Zugabe von 100 µl Extrakt in die Wells der Mikrotiterplatten mit dem gekoppelten Peptid und Inkubation. • 2. Waschen. • 3. Quantifizierung der Peptid-14-3-3 Komplexe über markierte Antikörper (siehe Variante 1). • 4. Detektion mittels eines ELISA-Platten-Readers.
Die in Tabelle 1 angegebenen Mengen an PCB 77, PCB 118 und PCB 153 wurden nach Auflösung in Kornöl in Klieschen (Limanda limanda) injiziert. […] Nach den angegebenen Zeiträumen wurde den Tieren die Leber entnommen und sofort eingefroren. Die Bestimmung des Gehalts an 14-3-3 in den Lebern erfolgte nach Homogenisation durch Mörsern der gefrorenen Gewebeproben in dem dreifachen Volumen an Phosphat-Puffer mit 1 mM EDTA und 1 mM Phenylmethylsulfonylfluorid.

As for `Clc1ccc(-c2cc(Cl)c(Cl)cc2Cl)cc1Cl` [PCB 118], the “14-3-3 Protein (OD-Einheit)” value with 14-3-3 Protein (setting [3]) is 0,74 OD-Einheit. In the assay with 14-3-3 [1], the “Expression des 14-3-3-Gens” value is “von nicht nachweisbar auf sehr hohe Werte induziert”. Moreover, the “Niveau der mRNA von 14-3-3” value with 14-3-3 [2] is reported as 30%.

As for `Clc1cc(Cl)c(-c2cc(Cl)c(Cl)cc2Cl)cc1Cl` [PCB153, PCB 153], the “14-3-3 Protein (OD-Einheit)” value with 14-3-3 Protein (setting [3]) is 0,81 OD-Einheit.

`[Cd]` [Cadmium]: the “14-3-3 Protein (OD-Einheit)” value with 14-3-3 Protein (Cadmium 0,01 mg/kg i.p.) is listed as 0,30 OD-Einheit; in the assay with 14-3-3 Protein (Cadmium 0,1 mg/kg i.p.), 0,98 OD-Einheit; in the assay with 14-3-3 Protein (Cadmium 0,03 mg/kg i.p.) it was 0,75 OD-Einheit.

With `Clc1ccc(-c2ccc(Cl)c(Cl)c2)cc1Cl` [PCB77, PCB 77], the “14-3-3 Protein (OD-Einheit)” value in the assay on 14-3-3 Protein (setting [3]) is given as 0,97 OD-Einheit.

In the case of `C[C@]12CC[C@@H]3c4ccc(O)cc4CC[C@H]3[C@@H]1CC[C@@H]2O` [17 beta-Östradiol], in the assay with 14-3-3 [2], the “Niveau der mRNA von 14-3-3” value turned out to be 100%.
